The NIST ThermoML archive (doi:10.1021/je600562n)
“And” between values parts separate entries of the source, which are not always exact repeats. Equal values may be shown once. ± gives the expanded uncertainty stated by the source.

Settings: Liquid; for mass density: Vibrating tube method; for viscosity: Vibrating wire viscometry

For `CC(C)CCCCCCCOC(=O)c1ccccc1C(=O)OCCCCCCCC(C)C`, the mass density (298.15 K, 101.33 kPa) was 963.81 ± 0.97 kg/m3 [middle of 7 runs], the viscosity (298.15 K, 101.33 kPa) was 87.2 ± 1.9 mPa·s and 87.5 ± 2 mPa·s and 87.3 ± 2 mPa·s and the mass density (298.15 K, 5000 kPa) was 962.8 ± 2.9 kg/m3. It also gave a mass density (298.15 K, 10000 kPa) of 965.6 ± 2.9 kg/m3, a viscosity (298.15 K, 10000 kPa) of 107.3 ± 2.5 mPa·s and a mass density (298.15 K, 20000 kPa) of 970.8 ± 2.9 kg/m3. It also gave a mass density (298.15 K, 30000 kPa) of 976 ± 2.9 kg/m3, a mass density (298.15 K, 50000 kPa) of 985.5 ± 3 kg/m3 and a mass density (298.15 K, 70000 kPa) of 995.2 ± 3 kg/m3. The viscosity (303.15 K, 101.33 kPa) was 64.6 ± 1.3 mPa·s, the viscosity (303.15 K, 10000 kPa) was 78.5 ± 1.9 mPa·s and the viscosity (303.15 K, 20000 kPa) was 98 ± 2.5 mPa·s. It also gave a viscosity (303.15 K, 30000 kPa) of 120.9 ± 3.2 mPa·s, a viscosity (308.15 K, 101.33 kPa) of 48.99 ± 1 mPa·s and a viscosity (308.15 K, 10000 kPa) of 60.3 ± 1.3 mPa·s. For the same compound, the viscosity (308.15 K, 20000 kPa) was 73.1 ± 1.7 mPa·s, the viscosity (308.15 K, 30000 kPa) was 89 ± 2.2 mPa·s and the viscosity (308.15 K, 50000 kPa) was 135.4 ± 3.6 mPa·s. For the same compound, the viscosity (313.15 K, 101.33 kPa) was 37.74 ± 0.77 mPa·s, the viscosity (313.15 K, 10000 kPa) was 46.5 ± 1 mPa·s and the viscosity (313.15 K, 20000 kPa) was 57 ± 1.3 mPa·s. The viscosity (313.15 K, 30000 kPa) was 68.1 ± 1.6 mPa·s, the viscosity (313.15 K, 50000 kPa) was 100.1 ± 2.5 mPa·s and the mass density (323.15 K, 101.33 kPa) was 945.64 ± 0.95 kg/m3 [middle of 7 runs]. The viscosity (323.15 K, 101.33 kPa) was 23.85 ± 0.49 mPa·s and 23.84 ± 0.5 mPa·s, the mass density (323.15 K, 5000 kPa) was 945.4 ± 2.9 kg/m3 and the mass density (323.15 K, 10000 kPa) was 948.5 ± 2.9 kg/m3. For the same compound, the viscosity (323.15 K, 10000 kPa) was 29.24 ± 0.6 mPa·s, the mass density (323.15 K, 20000 kPa) was 954.6 ± 2.9 kg/m3 and the viscosity (323.15 K, 20000 kPa) was 35.63 ± 0.8 mPa·s. It also gave a mass density (323.15 K, 30000 kPa) of 960.4 ± 2.9 kg/m3, a viscosity (323.15 K, 30000 kPa) of 42.46 ± 0.94 mPa·s and a mass density (323.15 K, 50000 kPa) of 970.7 ± 2.9 kg/m3. The viscosity (323.15 K, 50000 kPa) was 60.4 ± 1.3 mPa·s, the mass density (323.15 K, 70000 kPa) was 980.1 ± 3 kg/m3 and the viscosity (323.15 K, 70000 kPa) was 80.6 ± 1.8 mPa·s. The mass density (348.15 K, 101.33 kPa) was 927.68 ± 0.94 kg/m3 [middle of 7 runs], the viscosity (348.15 K, 101.33 kPa) was 9.71 ± 0.19 mPa·s and 9.72 ± 0.19 mPa·s and 9.71 ± 0.2 mPa·s and the mass density (348.15 K, 5000 kPa) was 927.9 ± 2.8 kg/m3. The mass density (348.15 K, 10000 kPa) was 931.3 ± 2.8 kg/m3, the viscosity (348.15 K, 10000 kPa) was 11.55 ± 0.25 mPa·s and the mass density (348.15 K, 20000 kPa) was 938 ± 2.8 kg/m3. For the same compound, the viscosity (348.15 K, 20000 kPa) was 13.81 ± 0.3 mPa·s, the mass density (348.15 K, 30000 kPa) was 944.1 ± 2.8 kg/m3 and the viscosity (348.15 K, 30000 kPa) was 15.93 ± 0.34 mPa·s. For the same compound, the mass density (348.15 K, 50000 kPa) was 955.3 ± 2.9 kg/m3, the viscosity (348.15 K, 50000 kPa) was 21.5 ± 0.5 mPa·s and the mass density (348.15 K, 70000 kPa) was 965.7 ± 2.9 kg/m3. For the same compound, the viscosity (348.15 K, 70000 kPa) was 28.86 ± 0.76 mPa·s, the mass density (363.15 K, 101.33 kPa) was 917.07 ± 0.92 kg/m3 [middle of 6 runs] and the viscosity (363.15 K, 101.33 kPa) was 6.39 ± 0.13 mPa·s. It also gave a mass density (373.15 K, 101.33 kPa) of 907 ± 2.7 kg/m3, a viscosity (373.15 K, 101.33 kPa) of 5.03 ± 0.1 mPa·s and a mass density (373.15 K, 5000 kPa) of 911.1 ± 2.8 kg/m3. For the same compound, the mass density (373.15 K, 10000 kPa) was 914.8 ± 2.8 kg/m3, the viscosity (373.15 K, 10000 kPa) was 5.92 ± 0.12 mPa·s and the mass density (373.15 K, 20000 kPa) was 922.1 ± 2.8 kg/m3. For the same compound, the viscosity (373.15 K, 20000 kPa) was 6.96 ± 0.15 mPa·s, the mass density (373.15 K, 30000 kPa) was 929 ± 2.8 kg/m3 and the viscosity (373.15 K, 30000 kPa) was 7.84 ± 0.17 mPa·s. For the same compound, the mass density (373.15 K, 50000 kPa) was 941 ± 2.8 kg/m3, the viscosity (373.15 K, 50000 kPa) was 10.33 ± 0.22 mPa·s and the mass density (373.15 K, 70000 kPa) was 952.1 ± 2.9 kg/m3. The viscosity (373.15 K, 70000 kPa) was 13.45 ± 0.32 mPa·s, the viscosity (398.15 K, 101.33 kPa) was 3.043 ± 0.063 mPa·s and the mass density (398.15 K, 5000 kPa) was 893.4 ± 2.7 kg/m3. The mass density (398.15 K, 10000 kPa) was 898.8 ± 2.7 kg/m3, the viscosity (398.15 K, 10000 kPa) was 3.601 ± 0.074 mPa·s and the mass density (398.15 K, 20000 kPa) was 906.6 ± 2.7 kg/m3. It also gave a viscosity (398.15 K, 20000 kPa) of 4.12 ± 0.09 mPa·s, a mass density (398.15 K, 30000 kPa) of 913.5 ± 2.8 kg/m3 and a viscosity (398.15 K, 30000 kPa) of 4.741 ± 0.1 mPa·s. The mass density (398.15 K, 50000 kPa) was 926 ± 2.8 kg/m3, the viscosity (398.15 K, 50000 kPa) was 5.98 ± 0.13 mPa·s and the mass density (398.15 K, 70000 kPa) was 938.9 ± 2.8 kg/m3. It also gave a viscosity (398.15 K, 70000 kPa) of 7.64 ± 0.17 mPa·s, a viscosity (423.15 K, 101.33 kPa) of 2.052 ± 0.042 mPa·s and a mass density (423.15 K, 5000 kPa) of 877.5 ± 2.7 kg/m3. The mass density (423.15 K, 10000 kPa) was 881.6 ± 2.7 kg/m3, the viscosity (423.15 K, 10000 kPa) was 2.401 ± 0.052 mPa·s and the mass density (423.15 K, 20000 kPa) was 890.4 ± 2.7 kg/m3. For the same compound, the viscosity (423.15 K, 20000 kPa) was 2.707 ± 0.058 mPa·s, the mass density (423.15 K, 30000 kPa) was 898.6 ± 2.7 kg/m3 and the viscosity (423.15 K, 30000 kPa) was 3.001 ± 0.065 mPa·s. For the same compound, the mass density (423.15 K, 50000 kPa) was 912.6 ± 2.8 kg/m3, the viscosity (423.15 K, 50000 kPa) was 3.857 ± 0.082 mPa·s and the mass density (423.15 K, 70000 kPa) was 926.7 ± 2.8 kg/m3. It also gave a viscosity (423.15 K, 70000 kPa) of 4.826 ± 0.1 mPa·s.
